Data taken from US9592226B2, “Solenopsin and derivatives, therapeutic compositions; and methods related thereto” (priority 2013, dated 2017).

What was measured:
[1] = test system: A375 (human melanoma) cells; assay: Proliferation study, A375 cells (Coulter Counter); type: cell-based; conditions: 10 μM, 24 h, cell count vs DMSO
Protocol: 50,000 cells/well were plated and treated for 24 h with each compound. The first DMSO bar in each chart serves as control for (+)-solenopsin A, (−)-solenopsin A, and ceramide C2. The second DMSO bar is the control for S11-S15.
(§1) Different analogs of solenopsin were synthesized (FIG. 1) in order to explore their structure-activity relationships. The aliphatic side chains of S14 and S13 are 4 and 8 carbons longer compared to solenopsin, respectively. S11 has an 8-carbon longer side chain, as well as an extra methyl group in the 4-position of the piperidine ring. S15 has an 11-carbon side chain similar to solenopsin, but the first carbon in the side chain is hydroxylated. Also, S15 lacks the methyl group in the 2-position of the piperidine ring. All the analogs together with (−)- and (+)-solenosin A, and the isomeric mixture of the two cis-isomers of solenopsin (S12) were tested, at 10 μM, on two different human melanoma cell lines (A375 and A2058) and one murine angiosarcoma cell line (SVR) (FIG. 2). The A375 and A2058 melanoma cell lines express mutant Braf and the SVR murine angiosarcoma cell line expresses mutant Hras. One important difference between the two human melanoma cell lines is the A2058 is PTEN null, whereas A375 is not.
(§2) A375 (human melanoma), A2058 (human melanoma), or SVR (murine angiosarcoma) cells were plated at a concentration of 50,000 cells/well. The cells were treated with 10 μM of (−)-solenopsin A, (+)-solenopsin A, or analogs (S11-S15) for 24 hours, at which point cells were counted with a Coulter Counter.

[2] = biological target: T1, PDK1 (Homo sapiens, UniProt O15530); assay: FRET biosensor Lyn-PARE, PDK1 activation in membrane rafts of NIH3T3 cells; type: cell-based, murine; conditions: 10 μM, 1 h
T1 construct: PARE was generated by sandwiching full-length PDK1 between a fluorescent protein pair (FRET pair), ECFP and citrine; expressed in transfected cells; host or cells: NIH3T3
T1 sequence (O15530 1-556): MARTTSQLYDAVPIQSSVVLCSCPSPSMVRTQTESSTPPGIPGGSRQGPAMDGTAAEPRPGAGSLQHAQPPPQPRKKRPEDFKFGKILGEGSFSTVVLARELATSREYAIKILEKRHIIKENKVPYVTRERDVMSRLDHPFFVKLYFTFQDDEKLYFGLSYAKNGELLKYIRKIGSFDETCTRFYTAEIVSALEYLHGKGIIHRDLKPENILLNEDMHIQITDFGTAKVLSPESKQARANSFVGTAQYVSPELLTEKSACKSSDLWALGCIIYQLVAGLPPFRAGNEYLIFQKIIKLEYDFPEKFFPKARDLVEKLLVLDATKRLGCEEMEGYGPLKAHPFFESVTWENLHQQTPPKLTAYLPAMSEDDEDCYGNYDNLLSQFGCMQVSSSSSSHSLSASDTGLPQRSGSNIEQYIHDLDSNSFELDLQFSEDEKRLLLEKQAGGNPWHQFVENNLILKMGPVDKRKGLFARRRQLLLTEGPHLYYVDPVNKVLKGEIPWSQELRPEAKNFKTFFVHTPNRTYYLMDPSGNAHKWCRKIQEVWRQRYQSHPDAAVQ
Protocol: (§3) In order to determine whether solenopsin A and analogs have similar modes of action to ceramide, a series of fluorescent biosensors were employed for the PI3K/Akt pathway. […] No significant inhibition could be seen for any of the other solenopsin analogs (FIG. 4).
(§4) PARE was generated by sandwiching full-length PDK1 between a fluorescent protein pair (FRET pair), ECFP and citrine, and a motif generated from the Lyn-kinase gene was added to the 5′-end to target the construct to raft microdomains. AktAR was generated by a fluorescent protein pair, cerulean and cpVE172, sandwiching a forkhead-associated binding domain (FHA1) and an Akt substrate domain (FOXO). PH(Akt)-citrine was constructed by attaching the yellow fluorescent protein (citrine) to the C-terminus of PH domain of Akt1, therefore the translocation of Akt PH domain can be detected by increase of yellow fluorescence at plasma membrane.
(§5) NIH3T3 cells were plated and grown to 40% confluency. […] The data was analyzed with Metafluor 6.2 software (Universal Imaging, Downingtown, Pa.). Cell regions were selected and fluorescence images were background-corrected by deducting the background (regions with no cells) from the emission intensities of CFP or YFP. […] For analysis of PH (Akt) domain translocation (PH(Akt)-citrine), the ratio of intensities of citrine at cell membrane and cytosol were calculated after background correction. […]

[3] = test system: UM-SCC1A cells; assay: Oxygen consumption rate (Seahorse) in UM-SCC1A cells; type: cell-based, human; conditions: 10 μM, 24 h
Protocol: UM-SCC1A cells were plated 15,000/well and treated for 24 h with 10 μM of (+)-solenopsin A ((+) Sol. A), (−)-solenopsin A ((−) Sol. A), and solenopsin analogs S11-S15. Oxygen consumption rate (OCR) was measured as pmoles O2/minute using a Seahorse Biosciences instrument. Data shown are an average of three experiments±s.d.
At least not in Braf mutated cell lines, such as A375 and A2058. One possibility is that solenopsin, like ceramide, may also localize to mitochondria, and cause mitochondrial induced cell death. Cellular oxygen consumption rate can be indicative of mitochondrial function. Therefore, to investigate if solenopsin A and analogs do alter mitochondrial function, UM-SCC1A (human head and neck SCC) cells were then treated with 10 μM compound or the equivalent amount of DMSO and incubated for 24 hours. A SeaHorse Bioscience instrument was used to measure the oxygen consumption rate (OCR). […] Mitophagy can be one reason for decreased OCR, but further assays are needed to confirm the cause for the observed differences.
UM-SCC1A cells were plated 15,000 per well in 200 μl DMEM supplemented with 10% FBS and 1% penicillin-streptomycin in each well of a 96-well Seahorse plate and incubated overnight at 37° C. with 5% CO2. Cells were then treated with 10 μM compound or the equivalent amount of DMSO and incubated for 24 hours. OCR was measured as pmoles O2/minute using the Seahorse Biociences instrument per manufacturer's instructions. Protein amounts in each well were then quantified using the Thermo Scientific Pierce Protein Assay, per manufacturer's instructions.

[4] = test system: A375 cells; assay: Superoxide (ROS) by DHE fluorescence, A375 cells; type: cell-based, human; conditions: 10 μM, 24 h
Protocol: Cells were treated for 24 h with 10 μM of (+)-solenopsin A ((+) Sol. A), (−)-solenopsin A ((−) Sol. A), and solenopsin analogs S11-S15. Cells were trypsined and incubated for 10 min in 10 μM dihydroethedium (DHE), followed by analysis with a FACScan flow cytometer. Data shown are an average of three experiments±s.d.
A375 or SVR cells were plated in 6 cm dishes. After cells had adhered to the plates, they were treated for 24 h with 10 μM DMSO solutions of (+)-solenopsin A, (−)-solenopsin A, or analogs (S11-S15) at which time the media was aspirated. Cells were washed with 2 mL PBS then treated with 0.05% trypsin/0.53 mM EDTA (Fisher) for 3 min at RT. Cells were collected and then pelleted at 600 g for 2 min. The supernatant was aspirated and the cells were suspended in 10 uM dihydroethidium (DHE) (Life Technologies) and incubated for 10 min in the dark at RT while shaking Following this incubation, cells were kept until counting on a Becton Dickinson FACScan flow cytometer. 10,000 cells were counted and analyzed by FlowJo 7.6.4. Mean values of DHE fluorescence intensity were compared.

[5] = biological target: T2, PH domain of Akt1 (Homo sapiens, UniProt P31749); assay: PH(Akt)-citrine, Akt translocation in NIH3T3 cells; type: cell-based, murine; conditions: 10 μM, 1 h
T2 construct: attaching the yellow fluorescent protein (citrine) to the C-terminus of PH domain of Akt1; expressed in transfected cells; host or cells: NIH3T3
Protocol: as §3, §4, §5

[6] = test system: Akt; assay: FRET biosensor AktAR, Akt activity in NIH3T3 cells; type: cell-based, murine; conditions: 10 μM, 1 h
Protocol: as §3, §4, §5

[7] = test system: A2058 (human melanoma) cells; assay: Proliferation study, A2058 cells (Coulter Counter); type: cell-based; conditions: 10 μM, 24 h, cell count vs DMSO
Description: as §1, §2

[8] = test system: SVR (murine angiosarcoma) cells; assay: Proliferation study, SVR cells (Coulter Counter); type: cell-based; conditions: 10 μM, 24 h, cell count vs DMSO
Description: as §1, §2

[9] = test system: PTEN; assay: Lipid raft fractionation (sucrose density gradient), PTEN translocation to membrane rafts in A375 cells; type: cell-based, human; conditions: 50 μM (positive control), 1 h
Protocol: A375 cells were treated for 1 h with: ceramide C2 (50 μM), (+)-solenopsin A ((+) Sol. A, 20 μM), (−)-solenopsin A ((−) Sol. A, 20 μM), or solenopsin analogs S11-S15 (20 μM). Cells were lysed in 0.5% Brij96 in TNEV, loaded onto the 5-40% sucrose gradient, and centrifuged at 34,000 rpm at 4° C. for 22 h. Thirteen fractions were collected, starting from the top of the tube. Equal volumes of each fraction were analyzed by Western blotting with caveolin and PTEN antibodies. Caveolin serves a positive control for which fractions that contain lipid rafts.
Caveolin was used as a positive marker to identify lipid raft fractions and an anti-PTEN antibody was used to identify PTEN-containing fractions (FIG. 3). A375 cells were treated for 1 h with 20 μM of (+)-solenopsin, (−)-solenopsin, or analogs S11-S15. […]
Cells were grown in T-75 flasks until 80% confluent followed by treatment for 1 h with 20 μM DMSO solutions of (+)-solenopsin A, (−)-solenopsin A, analogs (S12-S15), or 50 μM of ceramide C2 in DMSO. […] Equal volumes of each fraction were analyzed by Western blot with relevant antibodies.
Cells were grown in T-25 flasks until 80% confluent followed by treatment for 24 h with 10 μM DMSO solutions of (+)-solenopsin A, (−)-solenopsin A, or analogs (S11-S15). Sample aliquots normalized for protein quantities were size fractionated by 10% SDS-PAGE, and the proteins were transferred to a PVDF membrane. […]

T2 sequence (P31749 5-108 limits assumed): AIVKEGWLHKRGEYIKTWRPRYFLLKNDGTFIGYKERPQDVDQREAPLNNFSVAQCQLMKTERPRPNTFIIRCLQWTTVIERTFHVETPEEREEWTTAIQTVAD

Compound | antiproliferative effect [1] | inhibition of PDK1 activation (Lyn-PARE) [2] | oxygen consumption rate (OCR) compared to DMSO control [3] | effect on superoxide levels (DHE fluorescence) [4] | inhibition of Akt translocation (PH(Akt)-citrine) [5] | inhibition of Akt activity (AktAR) [6] | antiproliferative effect [7] | antiproliferative effect [8] | amount of PTEN in the lipid raft fractions [9]
CCCCCCCCCCCCCCCCCCCC1CCCC(C)N1 (stereo not drawn) [Compound S13, 2-Methyl-6-nonadecylpiperidine] | lower antiproliferative effect than S12 | some inhibition | slightly reduced OCR | no effect on superoxide levels | some inhibition | some inhibition | lower antiproliferative effect than S12 | lower antiproliferative effect than S12 | –
Ceramide | – | – | – | – | – | – | – | – | higher amount of PTEN in the lipid raft fractions
